Laboratory results taken from patent publication US11286268B1, “EIF4E-inhibiting compounds and methods” (EFFECTOR THERAPEUTICS, INC., priority 2019, dated 2022).

target: recombinant eIF4E (Homo sapiens (Human), UniProt P06730); assay: Fluorescence polarization competition assay for eIF4E binding potency; conditions: inhibition of eIF4E/EDA-m7GDP-ATTO-550 binding; calculated IC50 values, Table 4B; read-out: IC50
In short: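 Competition of test compound against 20 nM EDA-m^7GDP-ATTO-550 for 75 nM recombinant eIF4E, pre-incubated 5 min, in 20 mM Tris pH 7.5, 100 mM NaCl, 1 mM DTT, 0.02% Tween-20, 1% DMSO. Equilibrated 30 min at room temperature, dark; fluorescence polarization read. IC50 from 8-point, 3-fold dilution series.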

Sequence of recombinant eIF4E (P06730 whole entry): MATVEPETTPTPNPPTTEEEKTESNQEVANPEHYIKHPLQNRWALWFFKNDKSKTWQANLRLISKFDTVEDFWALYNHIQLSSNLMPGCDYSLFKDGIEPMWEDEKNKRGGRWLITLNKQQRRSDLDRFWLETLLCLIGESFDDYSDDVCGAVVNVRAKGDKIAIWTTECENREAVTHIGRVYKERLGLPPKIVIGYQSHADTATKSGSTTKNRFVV

Row | SMILES | IC50
1 | Cc1nc2ccc(C(F)(F)F)c(C#N)c2c(=O)n1CCOc1ccc(Cl)cc1-c1ccnc2c(C(=O)O)csc12 [compound 1935] | 80.1 nM
2 | N#Cc1ccc(F)c2nc(C(F)F)n(CCOc3ccc(Cl)cc3-c3ccnc4c(C(=O)O)csc34)c(=O)c12 [compound 1941] | 61.6 nM
3 | Cc1nc2c(Cl)ccc(C#N)c2c(=O)n1CCOc1ccc(Cl)cc1-c1ccnc2c(C(=O)O)csc12 [compound 1942] | 182 nM
4 | Cc1nc2cc3c(c(C#N)c2c(=O)n1CCOc1ccc(Cl)cc1-c1ccnc2c(C(=O)O)csc12)S(=O)(=O)N(C)C3 [compound 1953] | 89.3 nM
5 | Cc1nc2cnc(N(C)C3CCN(CC(C)(F)F)CC3)c(C(N)=O)c2c(=O)n1CC#Cc1ccc(Cl)cc1-c1ccnc2c(C(=O)OC(C)(C)C)csc12 [compound 1960] | 43200 nM
6 | Cc1nc2cnc(N(C)C3CCN(CC(C)(F)F)CC3)c(C(N)=O)c2c(=O)n1CC#Cc1ccc(Cl)cc1-c1ccnc2c(C(=O)O)csc12 [compound 1961] | 211 nM
7 | Cc1cc(-c2cc(Cl)ccc2OCCn2c(C)nc3c(C4CC4)ncc(Cl)c3c2=O)c2scc(C(=O)O)c2n1 [compound 1963] | 241 nM
8 | Cc1c(CC2CCOCC2)nc(C#N)c2nc(C)n(CC#Cc3ccc(Cl)cc3-c3ccnc4c(C(=O)O)csc34)c(=O)c12 [compound 1965] | 86.4 nM
9 | N#Cc1cc(C(F)(F)F)cc2c(Cl)c(Cl)n(CCOc3ccc(Cl)cc3-c3ccnc4c(C(=O)O)csc34)c(=O)c12 [compound 1970] | 67.2 nM
10 | Cc1cc(-c2cc(Cl)ccc2OCCn2c(C)nc3cc(C(F)(F)F)c(C4CCN(C)CC4)cc3c2=O)c2sc(C)c(C(=O)O)c2n1 [compound 1971] | 51.9 nM
11 | N#Cc1cccc2nc(C(F)F)n(CCOc3ccc(Cl)cc3-c3cccc(C(=O)O)c3)c(=O)c12 [compound 1973] | 14.3 nM
12 | Cc1cc(-c2cc(Cl)ccc2OCCn2c(=O)c3c(C#N)cc(C(F)(F)F)cc3n(C)c2=O)c2scc(C(=O)O)c2n1 [compound 1975] | 109 nM
13 | Cc1cc2cc(C(F)(F)F)cc(C#N)c2c(O)c1CCOc1ccc(Cl)cc1-c1ccnc2c(C(=O)O)csc12 [compound 1976] | 1850 nM
14 | COc1c(CCOc2ccc(Cl)cc2-c2ccnc3c(C(=O)O)csc23)c(C)cc2cc(C(F)(F)F)cc(C#N)c12 [compound 1977] | > 1000 nM
15 | N#Cc1cncc2nc(C(F)F)n(CCOc3ccc(Cl)cc3-c3cccc(C(=O)O)c3)c(=O)c12 [compound 1983] | 82.6 nM
16 | N#Cc1cccc2nc(C(F)F)n(CCOc3ccc(Cl)cc3-c3cccc(C(=O)O)c3)c(=O)c12 [compound 1986] | 78.5 nM
17 | CCC#Cc1c(C(=O)O)cccc1-c1cc(Cl)ccc1OCCn1c(C(F)F)nc2cccc(C#N)c2c1=O [compound 1987] | 1290 nM

Row | SMILES | IC50
18 | N#Cc1cc(C#N)c2c(=O)n(CCOc3ccc(Cl)cc3-c3cccc(C(=O)O)c3)cnc2c1 [compound 1989] | 89 nM
19 | N#Cc1ccc(C#N)c2c(=O)n(CCOc3ccc(Cl)cc3-c3cccc(C(=O)O)c3)cnc12 [compound 1990] | 58.1 nM
20 | O=C(O)c1cccc(-c2cc(Cl)ccc2OCCn2nnc3ccccc3c2=O)c1 [compound 1991] | > 300000 nM
21 | O=C(O)c1cccc(-c2cc(Cl)ccc2OCCn2cnc3cnccc3c2=O)c1 [compound 1992] | 490 nM
22 | O=C(O)c1cccc(-c2cc(Cl)ccc2OCCn2cnc3c(C(F)(F)F)nccc3c2=O)c1 [compound 1993] | 412 nM
23 | Cc1nc2cnc(C#N)cc2c(=O)n1CCOc1ccc(Cl)cc1-c1cccc(C(=O)O)c1 [compound 1995] | 59.3 nM
24 | N#Cc1cc2c(=O)n(CCOc3ccc(Cl)cc3-c3cccc(C(=O)O)c3)c(C(F)F)nc2cn1 [compound 1996] | 189 nM
25 | Cc1nc2c(C#N)nc(C#N)cc2c(=O)n1CCOc1ccc(Cl)cc1-c1cccc(C(=O)O)c1 [compound 1997] | 77.5 nM
26 | Cc1nc2cnc(CN)cc2c(=O)n1CCOc1ccc(Cl)cc1-c1cccc(C(=O)O)c1 [compound 1998] | 409 nM
27 | Cc1nc2cncc(Br)c2c(=O)n1CCOc1ccc(Cl)cc1-c1cccc(C(=O)O)c1 [compound 1999] | 482 nM
28 | O=C(O)c1cccc(-c2cc(Cl)ccc2OCCn2c(Nc3ccccc3)nc3c(O)nccc3c2=O)c1 [compound 2000] | 18200 nM
29 | O=C(O)c1cccc(-c2cc(Cl)ccc2OCCn2c(Nc3ccccc3)nc3c(Cl)nccc3c2=O)c1 [compound 2001] | 65800 nM
30 | Cc1nc2cnc(Nc3cc(F)cc(F)c3)cc2c(=O)n1CCOc1ccc(Cl)cc1-c1cccc(C(=O)O)c1 [compound 2002] | 259 nM
31 | Cc1nc2cnc(NC3CCCCC3)cc2c(=O)n1CCOc1ccc(Cl)cc1-c1cccc(C(=O)O)c1 [compound 2003] | 264 nM
32 | Cc1nc2cnc(Nc3ccccc3)cc2c(=O)n1CCOc1ccc(Cl)cc1-c1cccc(C(=O)O)c1 [compound 2004] | 639 nM
33 | Cc1nc2cnc(NC3CCCC3)cc2c(=O)n1CCOc1ccc(Cl)cc1-c1cccc(C(=O)O)c1 [compound 2005] | 364 nM

Further lines, results first:

Row | IC50 | SMILES
34 | 22.9 nM | Cc1nc2cc(C(F)(F)F)c(N3CCC4(CC3)CN(CC(F)F)C4)c(C#N)c2c(=O)n1CCOc1ccc(Cl)cc1-c1ccnc2c(C(=O)NS(C)(=O)=O)csc12 [compound 1913]
35 | 4.81 nM | Cc1nc2cc(C(F)(F)F)c(N3CC4(C3)CN(C3CC3)C4)c(C#N)c2c(=O)n1CCOc1ccc(Cl)cc1-c1ccnc2c(C(=O)NS(C)(=O)=O)csc12 [compound 1930]
36 | 19.7 nM | CCc1cc(-c2cc(Cl)ccc2OCCn2c(C)nc3cc(C(F)(F)F)c(N4CC5(C4)CN(C4CC4)C5)c(C#N)c3c2=O)c2scc(C(=O)O)c2n1 [compound 1931]
37 | 8.4 nM | CCc1cc(-c2cc(Cl)ccc2OCCn2c(C)nc3cc(C(F)(F)F)c(N4CC5(C4)CN(C4CC4)C5)c(C#N)c3c2=O)c2scc(C(=O)NS(C)(=O)=O)c2n1 [compound 1932]
38 | 34.6 nM | Cc1sc2c(-c3cc(Cl)ccc3OCCn3c(C)nc4c(C)c(C(F)(F)F)c(N5CCN(C)CC5)c(C#N)c4c3=O)ccnc2c1C(=O)O [compound 1933]
39 | 38.5 nM | Cc1c(C(F)(F)F)c(N2CCN(C)CC2)c(C#N)c2c(=O)n(CCOc3ccc(Cl)cc3-c3ccnc4c(C(=O)O)csc34)c(C)nc12 [compound 1934]
40 | 37.4 nM | Cc1nc2ccc(CN(C)C)c(C#N)c2c(=O)n1CCOc1ccc(Cl)cc1-c1ccnc2c(C(=O)O)csc12 [compound 1936]
41 | 38.2 nM | Cc1nc2cc(F)cc(C#N)c2c(=O)n1CCOc1ccc(Cl)cc1-c1ccnc2c(C(=O)O)csc12 [compound 1937]
42 | 46.3 nM | N#Cc1cc(F)cc2nc(C(F)F)n(CCOc3ccc(Cl)cc3-c3ccnc4c(C(=O)O)csc34)c(=O)c12 [compound 1938]
43 | 24.5 nM | Cc1nc2cc(C(F)F)cc(C#N)c2c(=O)n1CCOc1ccc(Cl)cc1-c1ccnc2c(C(=O)O)csc12 [compound 1939]
44 | 34.9 nM | Cc1nc2cc(OC(F)F)cc(C#N)c2c(=O)n1CCOc1ccc(Cl)cc1-c1ccnc2c(C(=O)O)csc12 [compound 1940]
45 | 42.4 nM | N#Cc1ccc(C#N)c2c(=O)n(CCOc3ccc(Cl)cc3-c3ccnc4c(C(=O)O)csc34)c(C(F)F)nc12 [compound 1943]
46 | 24.9 nM | Cc1nc2c(F)cc(C(F)F)c(C#N)c2c(=O)n1CCOc1ccc(Cl)cc1-c1ccnc2c(C(=O)O)csc12 [compound 1944]
47 | 44.9 nM | Cc1nc2c(F)cc(C(F)F)c(C#N)c2c(=O)n1CCOc1ccc(Cl)cc1-c1ccnc2c(C(=O)NS(C)(=O)=O)csc12 [compound 1945]
48 | 44.7 nM | Cc1nc2c(c(C#N)cc3ccccc32)c(=O)n1CCOc1ccc(Cl)cc1-c1ccnc2c(C(=O)O)csc12 [compound 1946]
49 | 29.7 nM | Cc1nc2cc(F)c(F)c(C#N)c2c(=O)n1CCOc1ccc(Cl)cc1-c1ccnc2c(C(=O)O)csc12 [compound 1947]
50 | 35.6 nM | Cc1nc2cc(S(=O)(=O)N(C)C)c(Cl)c(C#N)c2c(=O)n1CCOc1ccc(Cl)cc1-c1ccnc2c(C(=O)O)csc12 [compound 1948]
51 | 21.6 nM | Cc1nc2cc(Cl)c(C#N)c(C#N)c2c(=O)n1CCOc1ccc(Cl)cc1-c1ccnc2c(C(=O)O)csc12 [compound 1949]
52 | 41.7 nM | Cc1cc(-c2cc(Cl)ccc2OCCn2c(C)nc3cc(Cl)c(N4CC5(CCC5)C4)c(C#N)c3c2=O)c2scc(C(=O)O)c2n1 [compound 1950]
53 | 19.9 nM | Cc1nc2cc(Cl)c(C(F)F)c(C#N)c2c(=O)n1CCOc1ccc(Cl)cc1-c1ccnc2c(C(=O)O)csc12 [compound 1951]
54 | 17 nM | Cc1nc2cc3c(c(C#N)c2c(=O)n1CCOc1ccc(Cl)cc1-c1ccnc2c(C(=O)O)csc12)S(=O)(=O)N(C)CC3 [compound 1954]
55 | 46.3 nM | Cc1cc(-c2cc(Cl)ccc2OCCn2c(C)nc3c(C)nc(CN(C)C)cc3c2=O)c2scc(C(=O)O)c2n1 [compound 1959]
56 | 49.8 nM | Cc1cc(-c2cc(Cl)ccc2OCCn2c(C)nc3c(C#N)nc(C4CC4)c(C)c3c2=O)c2scc(C(=O)O)c2n1 [compound 1964]
57 | 18 nM | Cc1nc2cc(C(F)(F)F)c3c(c2c(=O)n1CCOc1ccc(Cl)cc1-c1ccnc2c(C(=O)O)csc12)C(=O)OC3 [compound 1972]
58 | 51.3 nM | Cc1cc(-c2cc(Cl)ccc2OCCn2c(C)nc3cc(C(F)(F)F)c4c(c3c2=O)C(=O)CC4)c2scc(C(=O)O)c2n1 [compound 1974]
59 | 25.3 nM | Cc1cc(-c2cc(Cl)ccc2OCCn2c(C)nc3cc(C(F)(F)F)c(Cl)nc3c2=O)c2scc(C(=O)O)c2n1 [compound 1978]
60 | 23.8 nM | Cc1nc2c(C(F)(F)F)cc(N3CCN(C)CC3)nc2c(=O)n1CC#Cc1ccc(Cl)cc1-c1ccnc2c(C(=O)O)csc12 [compound 1981]
61 | 36.4 nM | Cc1nc2cncc(C#N)c2c(=O)n1CCOc1ccc(Cl)cc1-c1cccc(C(=O)O)c1 [compound 1982]
62 | 49.5 nM | N#Cc1cc(Br)cc2ncn(CCOc3ccc(Cl)cc3-c3cccc(C(=O)O)c3)c(=O)c12 [compound 1988]
63 | 41.8 nM | N#Cc1cc(C(F)(F)F)cc2ncn(CCOc3ccc(Cl)cc3-c3cccc(C(=O)O)c3)c(=O)c12 [compound 1994]
